The supplement of paper PMC11451515

Experiments:
Settings in all cases: 48 h
SEM cells [1] = test: cell viability relative to DMSO control; higher = less cytotoxic
In short: (§1)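 Before seeding, each leukemia line was adapted for at least four passages in each medium. NOMO1 or SEM cells (500 cells/well) and P12-Ichikawa cells (1000 cells/well) went into 1536-well plates at 5 μl, then received library compounds in DMSO by pin dosing across 11 threefold concentrations, 47 μM to 0.79 nM. Readout was CellTiter-Glo One luminescence after 48 h at 37°C, and viability is given as a per-plate percentage of DMSO wells, with cell-free wells as background.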

NOMO1 [2] = test: as above
In short: as §1

P12-Ichikawa [3] = test: as above
In short: as §1

SEM cells [4] = test: AUC of viability dose-response curve (% viability x log10 dose units); higher = less sensitive
In short: (§2)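 Over 48 h at 37°C, leukemia cells in 1536-well plates (500 or 1000 cells/well), adapted to each medium, received library compounds in DMSO at 11 threefold doses from 47 μM to 0.79 nM. CellTiter-Glo One luminescence, normalised per plate to DMSO and cell-free wells, was fitted by a four-parameter log-logistic function of log10 dose. The area under the curve was then integrated by trapezoidal rule, after scaling curves above full viability and removing those that failed quality control.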

NOMO1 [5] = test: as above
In short: as §2

P12-Ichikawa [6] = test: as above
In short: as §2

Cc1cc(Nc2cc(N3CCN(C)CC3)nc(/C=C/c3ccccc3)n2)n[nH]1
cell viability [%]
Settings	NOMO1 [2]	P12-Ichikawa [3]	SEM cells [1]
HPLM + 10% dialyzed FBS, 0.000781 µM	111	105	83.9
HPLM + 10% dialyzed FBS, 0.00234 µM	122	111	109
HPLM + 10% dialyzed FBS, 0.00702 µM	117	115	112
HPLM + 10% dialyzed FBS, 0.0211 µM	122	120	96.5
HPLM + 10% dialyzed FBS, 0.0632 µM	135	118	95.4
HPLM + 10% dialyzed FBS, 0.19 µM	114	122	60.3
HPLM + 10% dialyzed FBS, 0.569 µM	130	116	36.6
HPLM + 10% dialyzed FBS, 1.71 µM	53.7	12.1	6.67
HPLM + 10% dialyzed FBS, 5.12 µM	14.8	5.08	5.57
HPLM + 10% dialyzed FBS, 15.4 µM	5.4	4.47	4.53
HPLM + 10% dialyzed FBS, 46.1 µM	5.88	5.23	5.51
RPMI 5 mM glucose + 10% FBS, 0.000781 µM	106	113	86.5
RPMI 5 mM glucose + 10% FBS, 0.00234 µM	98.4	108	108
RPMI 5 mM glucose + 10% FBS, 0.00702 µM	110	113	94.1
RPMI 5 mM glucose + 10% FBS, 0.0211 µM	112	117	112
RPMI 5 mM glucose + 10% FBS, 0.0632 µM	115	121	93.8
RPMI 5 mM glucose + 10% FBS, 0.19 µM	123	125	60.6
RPMI 5 mM glucose + 10% FBS, 0.569 µM	100	119	29.5
RPMI 5 mM glucose + 10% FBS, 1.71 µM	47.6	41.5	5.23
RPMI 5 mM glucose + 10% FBS, 5.12 µM	13.3	8.43	4.53
RPMI 5 mM glucose + 10% FBS, 15.4 µM	4.18	4.4	3.57
RPMI 5 mM glucose + 10% FBS, 46.1 µM	3.81	4.88	4.68
RPMI 5 mM glucose + 10% dialyzed FBS, 0.000781 µM	108	107	100
RPMI 5 mM glucose + 10% dialyzed FBS, 0.00234 µM	104	114	112
RPMI 5 mM glucose + 10% dialyzed FBS, 0.00702 µM	111	112	97.1
RPMI 5 mM glucose + 10% dialyzed FBS, 0.0211 µM	104	112	112
RPMI 5 mM glucose + 10% dialyzed FBS, 0.0632 µM	110	121	95.3
RPMI 5 mM glucose + 10% dialyzed FBS, 0.19 µM	114	130	57.8
RPMI 5 mM glucose + 10% dialyzed FBS, 0.569 µM	105	126	28.2
RPMI 5 mM glucose + 10% dialyzed FBS, 1.71 µM	56.3	37.4	6.13
RPMI 5 mM glucose + 10% dialyzed FBS, 5.12 µM	24.2	11.6	4.41
RPMI 5 mM glucose + 10% dialyzed FBS, 15.4 µM	7.24	5.07	3.5
RPMI 5 mM glucose + 10% dialyzed FBS, 46.1 µM	5	5.54	5.17

AUC of viability dose-response curve
Settings	NOMO1 [5]	P12-Ichikawa [6]	SEM cells [4]
HPLM + 10% dialyzed FBS	340	320	264
RPMI 5 mM glucose + 10% FBS	334	333	261
RPMI 5 mM glucose + 10% dialyzed FBS	345	333	255

C[C@H](CCC(=O)O)[C@H]1CC[C@H]2[C@@H]3[C@H](O)C[C@@H]4C[C@H](O)CC[C@]4(C)[C@H]3CC[C@]12C
cell viability [%]
Settings	NOMO1 [2]	P12-Ichikawa [3]	SEM cells [1]
HPLM + 10% dialyzed FBS, 0.000781 µM	93.9	94.6	79.7
HPLM + 10% dialyzed FBS, 0.00234 µM	93.7	87.9	80.7
HPLM + 10% dialyzed FBS, 0.00702 µM	108	93.9	96.3
HPLM + 10% dialyzed FBS, 0.0211 µM	99.5	92.4	80.3
HPLM + 10% dialyzed FBS, 0.0632 µM	106	98.8	99.9
HPLM + 10% dialyzed FBS, 0.19 µM	98.4	97.5	84
HPLM + 10% dialyzed FBS, 0.569 µM	102	93.3	95
HPLM + 10% dialyzed FBS, 1.71 µM	99	92.8	92.5
HPLM + 10% dialyzed FBS, 5.12 µM	101	92.2	93.5
HPLM + 10% dialyzed FBS, 15.4 µM	120	93.9	84.1
HPLM + 10% dialyzed FBS, 46.1 µM	114	94.2	75.5
RPMI 5 mM glucose + 10% FBS, 0.000781 µM	85	91	75.4
RPMI 5 mM glucose + 10% FBS, 0.00234 µM	88.1	88.4	81.9
RPMI 5 mM glucose + 10% FBS, 0.00702 µM	92.9	89.2	90.3
RPMI 5 mM glucose + 10% FBS, 0.0211 µM	88.6	91.7	96.9
RPMI 5 mM glucose + 10% FBS, 0.0632 µM	101	90.5	87.6
RPMI 5 mM glucose + 10% FBS, 0.19 µM	87.1	90.1	76.5
RPMI 5 mM glucose + 10% FBS, 0.569 µM	102	90.7	91
RPMI 5 mM glucose + 10% FBS, 1.71 µM	91.2	90	80.2
RPMI 5 mM glucose + 10% FBS, 5.12 µM	93.5	88.1	99.1
RPMI 5 mM glucose + 10% FBS, 15.4 µM	90.3	89.8	81.9
RPMI 5 mM glucose + 10% FBS, 46.1 µM	83	95.6	67
RPMI 5 mM glucose + 10% dialyzed FBS, 0.000781 µM	73	81.1	87.5
RPMI 5 mM glucose + 10% dialyzed FBS, 0.00234 µM	80.4	82.7	93.7
RPMI 5 mM glucose + 10% dialyzed FBS, 0.00702 µM	82.5	93.3	105
RPMI 5 mM glucose + 10% dialyzed FBS, 0.0211 µM	84.9	93	95
RPMI 5 mM glucose + 10% dialyzed FBS, 0.0632 µM	88.9	89.6	85.5
RPMI 5 mM glucose + 10% dialyzed FBS, 0.19 µM	88.8	85.3	79.4
RPMI 5 mM glucose + 10% dialyzed FBS, 0.569 µM	83	88.2	91.4
RPMI 5 mM glucose + 10% dialyzed FBS, 1.71 µM	79.8	87.2	92.2
RPMI 5 mM glucose + 10% dialyzed FBS, 5.12 µM	89.2	86.5	95.3
RPMI 5 mM glucose + 10% dialyzed FBS, 15.4 µM	99.2	85.9	95.1
RPMI 5 mM glucose + 10% dialyzed FBS, 46.1 µM	92.4	91.1	79.7

AUC of viability dose-response curve
Settings	NOMO1 [5]	P12-Ichikawa [6]	SEM cells [4]
HPLM + 10% dialyzed FBS	443	448	417
RPMI 5 mM glucose + 10% FBS	436	431	406
RPMI 5 mM glucose + 10% dialyzed FBS	409	418	433
